# Test results: EP2975030B1, “DIHYDROPYRIDAZINE-3,5-DIONE DERIVATIVE” (Chugai Seiyaku Kabushiki Kaisha, priority 2013, dated 2014)
# System: rat small-intestinal brush border membrane vesicles
# Assay: Inhibitory effect on 33PO4 uptake into rat small-intestinal brush border membrane vesicles (rapid filtration method)
# Format: biochemical, Wistar female rat
# Conditions: 1 µM test compound; 33PO4 uptake into rat small-intestinal BBMVs, 60 seconds
# In short: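 Uptake was terminated by ice-cold 110 mM NaCl, 1 mM KH2PO4, 10 mM HEPES (pH 7.5) buffer and immediate suction filtration, then washing. Using rat small-intestinal BBMVs, retained 33PO4 was quantified by liquid scintillation counting as transport activity.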
row,Compound,Rate of uptake inhibition (%) (1 µM)
1,"Cc1cc(NC(=O)C2=C(O)[C@@H]3CCCCN3N(Cc3c(F)c(F)cc4cc[nH]c34)C2=O)c(C(F)(F)F)o1 [Example 17, (4aS)-1-[(5,6-Difluoro-1H-indol-7-yl)methyl]-4-hvdroxy-N-[5-methyl-2-(trifluoromethyl)furan-3-yl]-2-oxo-5,6,7,8-tetrahydro-4aH-pyrido[1,2-b]pyridazine-3-carboxamide]",33
2,C[C@]12CCCN1N(Cc1cccc(C#N)c1)C(=O)C(C(=O)Nc1cc(F)c(Br)c(F)c1)=C2O [Example 220],96
3,CN1N(Cc2ccc(OCCCCCCC(=O)O)c(F)c2F)C(=O)C(C(=O)Nc2ccc(C(F)(F)F)cc2-c2cc(C(F)(F)F)ncn2)=C(O)C12CCCC2 [Example 335],30
4,CN1N(Cc2ccc(OCCCOCCCO)c(F)c2F)C(=O)C(C(=O)Nc2ccc(C(F)(F)F)cc2-c2cc(C(F)(F)F)ncn2)=C(O)C12CCCC2 [Example 398],34
5,CC(=O)NCCN(C)CCOc1ccc(CN2C(=O)C(C(=O)Nc3ccc(C(F)(F)F)cc3-c3cc(C(F)(F)F)ncn3)=C(O)C3(CCC3)N2C)c(F)c1F [Example 353],26
6,Cc1ccccc1CN1C(=O)C(C(=O)Nc2ccc(C(F)(F)F)cc2-c2cc(C(F)(F)F)ncn2)=C(O)[C@@]2(C)CCCN12 [Example 185],83
7,"(4aR)-4a-Ethyl-1-[(3-fluorophenyl)methyl]-4-hydroxy-N-[5-methyl-2-(trifluoromethyl)furan-3-yl]-2-oxo-6,7-dihydro-5H-pyrrolo[1,2-b]pyridazine-3-carboxamide [Example 9]",63
8,CSc1ccc(-c2cc(C(F)(F)F)ccc2NC(=O)C2=C(O)C3(CCCC3)N(C)N(Cc3ccc(OCCN4CCOCC4)c(F)c3F)C2=O)cn1 [Example 289],55
9,C[C@]12CCCN1N(Cc1cccc(F)c1)C(=O)C(C(=O)Nc1ccc(C(F)(F)F)cc1-c1ccc(C(F)(F)F)nc1)=C2O [Example 206],76
10,CN1N(Cc2ccc(OCCCCCOCCCO)c(F)c2F)C(=O)C(C(=O)Nc2ccc(C(F)(F)F)cc2-c2cc(C(F)(F)F)ncn2)=C(O)C12CCCC2 [Example 400],36
11,CN1[C@@H](C(C)(C)C)C(O)=C(C(=O)Nc2cnc(C(F)(F)F)nc2-c2ccc(C(F)(F)F)nc2)C(=O)N1Cc1ccc(OCCN2CCOCC2)c(F)c1F [Example 273],41
12,CN1[C@@H](C(C)(C)C)C(O)=C(C(=O)Nc2ccc(C(F)(F)F)cc2-c2ccc(C(F)(F)F)nc2)C(=O)N1Cc1cccc(F)c1F [Example 238],47
13,C[C@]12CCCN1N(Cc1cccc(OC(F)F)c1)C(=O)C(C(=O)Nc1ccc(C(F)(F)F)cc1-c1cc(C(F)(F)F)ncn1)=C2O [Example 177],85
14,CN1N(Cc2ccc(OCCN3CCOCC3)c(F)c2F)C(=O)C(C(=O)Nc2ccc(Cl)cc2-c2ccc(C(F)(F)F)nc2)=C(O)C12CCCC2 [Example 288],61
15,CC(C)[C@H]1C(O)=C(C(=O)Nc2ccc(C(F)(F)F)cc2-c2ccc(C(F)(F)F)nc2)C(=O)N(Cc2cccc(F)c2F)N1C [Example 253],40
16,CC(C)[C@H]1C(O)=C(C(=O)Nc2ccc(Cl)cc2-c2ccc(C(F)(F)F)nc2)C(=O)N(Cc2ccc(OCCN3CCOCC3)c(F)c2F)N1C [Example 281],41
17,COCCN(C)CCOCCOCCOc1ccc(CN2C(=O)C(C(=O)Nc3ccc(C(F)(F)F)cc3-c3cc(C(F)(F)F)ncn3)=C(O)C3(CCCC3)N2C)c(F)c1F [Example 430],29
18,CN1[C@@H](C(C)(C)C)C(O)=C(C(=O)Nc2ccc(C(F)(F)F)cc2C(F)(F)F)C(=O)N1Cc1ccc(OCCN2CCOCC2)c(F)c1F [Example 277],41
19,C[C@]12CCCN1N(Cc1ccc(F)cc1)C(=O)C(C(=O)Nc1ccc(C(F)(F)F)cc1-c1cc(C(F)(F)F)ncn1)=C2O [Example 208],90
20,CN1N(Cc2ccc(OCCN3CCOCC3)c(F)c2F)C(=O)C(C(=O)Nc2ccc(C(F)(F)F)cc2-c2cc(C(F)(F)F)ncn2)=C(O)C12CCCCC2 [Example 295],21

row,Compound,Rate of uptake inhibition (%) (1 µM)
1,C[C@]12CCCN1N(Cc1cccc(F)c1F)C(=O)C(C(=O)Nc1ccc(Br)cc1-c1cc(C(F)(F)F)ncn1)=C2O [Example 64],77
2,C[C@]12CCCN1N(Cc1cccc(F)c1F)C(=O)C(C(=O)Nc1ccc(C(F)(F)F)cc1-c1cnc(Cl)nc1)=C2O [Example 67],91
3,CN1N(Cc2ccc(OCCCCOC[C@H](O)CO)c(F)c2F)C(=O)C(C(=O)Nc2ccc(C(F)(F)F)cc2-c2cc(C(F)(F)F)ncn2)=C(O)C12CCC2 [Example 390],58
4,COCCN(C)CCOCCOCCOCCOCCOc1ccc(CN2C(=O)C(C(=O)Nc3ccc(C(F)(F)F)cc3-c3cc(C(F)(F)F)ncn3)=C(O)C3(CCCC3)N2C)c(F)c1F [Example 432],11
5,C[C@]12CCCN1N(Cc1cccc(F)c1F)C(=O)C(C(=O)Nc1ccc(C(F)(F)F)cc1-c1cc(C#N)ncn1)=C2O [Example 100],69
6,COCCN(C)CCOCCOCCOCCOc1ccc(CN2C(=O)C(C(=O)Nc3ccc(C(F)(F)F)cc3-c3cc(C(F)(F)F)ncn3)=C(O)C3(CCCC3)N2C)c(F)c1F [Example 431],26
7,CCCN(CCN(C)CCOC)c1ccc(CN2C(=O)C(C(=O)Nc3ccc(C(F)(F)F)cc3-c3cc(C(F)(F)F)ncn3)=C(O)C3(CCCC3)N2C)c(F)c1F [Example 444],24
8,"CN1N(Cc2ccc(OCCOCCNCC(O)CO)c(F)c2F)C(=O)C(C(=O)Nc2ccc(C(F)(F)F)cc2-c2cc(C(F)(F)F)ncn2)=C(O)C12CCCC2 (stereo not shown) [Example 419, 7-[[4-[2-[2-(2,3-Dihydroxypropylamino)ethoxy]ethoxy]-2,3-difluorophenyl]methyl]-10-hydroxy-6-methyl-8-oxo-N-[4-(trifluoromethyl)-2-[6-(trifluoromethyl)pyrimidin-4-yl]phenyl]-6,7-diazaspiro[4.5]dec-9-ene-9-carboxamide]",22
9,"1-[(3-Fluorophenyl)methyl]-4-hydroxy-4a-methyl-N-[5-methyl-2-(trifluoromethyl)furan-3-yl]-2-oxo-5,6,7,8-tetrahydropyrido[1,2-b]pyridazine-3-carboxamide [Example 18]",12
10,Cc1ccc(CN2C(=O)C(C(=O)Nc3ccc(C(F)(F)F)cc3-c3cc(C(F)(F)F)ncn3)=C(O)[C@@]3(C)CCCN23)cc1 [Example 187],80
11,"(4aS,5S,8R)-1-(3-Fluorobenzyl)-4-hydroxy-N-(5-methyl-2-(trifluoromethyl)furan-3-yl)-2-oxo-2,4a,5,6,7,8-hexahydro-1H-5,8-methanopyrido[1,2-b]pyridazine-3-carboxamide [Example 20]",21
12,C[C@]12CCCN1N(Cc1cccc(F)c1F)C(=O)C(C(=O)Nc1ccc(C(F)(F)F)cc1-c1cnc(Br)cn1)=C2O [Example 73],74
13,CSC1CN(CCOc2ccc(CN3C(=O)C(C(=O)Nc4ccc(C(F)(F)F)cc4-c4cc(C(F)(F)F)ncn4)=C(O)C4(CCC4)N3C)c(F)c2F)C1 [Example 357],45
14,"Cc1ncc(-c2cc(C(F)(F)F)ccc2NC(=O)C2=C(O)[C@@]3(C)CCCN3N(Cc3cccc(F)c3F)C2=O)cc1C#N [Example 109, (4aR)-N-[2-(5-Cyano-6-methylpyridin-3-yl)-4-(trifluoromethyl)phenyl]-1-[(2,3-difluorophenyl)methyl]-4-hydroxy-4a-methyl-2-oxo-6,7-dihydro-5H-pyrrolo[1,2-b]pyridazine-3-carboxamide]",52
15,"CSc1ccc(-c2cc(C(F)(F)F)ccc2NC(=O)C2=C(O)[C@@]3(C)CCCN3N(Cc3ccc(CCCCCCC(=O)O)c(F)c3F)C2=O)cn1 [Example 115, 7-[4-[[(4aR)-4-Hydroxy-4a-methyl-3-[[2-(6-methylsulfanylpyridin-3-yl)-4-(trifluoromethyl)phenyl]carbamoyl]-2-oxo-6,7-dihydro-5H-pyrrolo[1,2-b]pyridazin-1-yl]methyl]-2,3-difluorophenyl]heptanoate]",85
16,C[C@@]12CCCN1N(Cc1ccc(OCCN3CCOCC3)c(F)c1F)C(=O)C(C(=O)Nc1ccc(C(F)(F)F)cc1-c1cc(C(F)(F)F)ncn1)=C2O.Cl [Example 108],54
17,C[C@]12CCCN1N(Cc1cc(F)c(F)c(F)c1)C(=O)C(C(=O)Nc1cc(F)c(Br)c(F)c1)=C2O [Example 197],82
18,CN1N(Cc2ccc(OCCCCCOCCO)c(F)c2F)C(=O)C(C(=O)Nc2ccc(C(F)(F)F)cc2-c2cc(C(F)(F)F)ncn2)=C(O)C12CCCC2 [Example 397],40
19,"CN1N(Cc2ccc(OCCCOC[C@H](O)CO)c(F)c2F)C(=O)C(C(=O)Nc2ccc(C(F)(F)F)cc2-c2ccc(C(F)(F)F)nc2)=C(O)C12CCC2 [Example 383, 6-[[4-[3-[(2R)-2,3-Dihydroxypropoxy]propoxy]-2,3-difluorophenyl]methyl]-9-hydroxy-5-methyl-7-oxo-N-[4-(trifluoromethyl)-2-[6-(trifluoromethyl)pyrydin-3-yl]phenyl]-5,6-diazaspiro[3.5]non-8-ene-8-carboxamide]",126
20,C[C@]12CCCN1N(Cc1cccc(Cl)c1F)C(=O)C(C(=O)Nc1ccc(C(F)(F)F)cc1-c1cc(C(F)(F)F)ncn1)=C2O [Example 209],76
